Converted amounts (≈) assume the structure as drawn. “Also recorded” adds a separate entry of the source. Where two headings read alike, the source gives them in different places. Where a SMILES comes first, the peptide text is derived from it.
How the values were obtained:
[1] = Stability study at different temperatures (absorbance spectrum); conditions: room temperature, 35 °C, 40 °C, 50 °C and 60 °C
Procedure: (§1) The stability of dendrimers at different pH values and temperatures was also determined. For this, a 510 model digital pH meter (Oakton Eutech) with working electrode of glass material and a Ag/AgCl as reference electrode was used for the pH record. Dilute solutions of HCl and NaOH were added to adjust the pH of the solution from 2 to 12. Similarly, stability of monomer [G10a]-SHa and its three dendrimers was checked by heating the peptide dendrimers on different temperature ranges, i.e., room temperature, 35 °C, 40 °C, 50 °C and 60 °C.

[2] = test system: Staphylococcus aureus (ATCC 6538); type: cell-based
Procedure: (§2) Experiments were performed in triplicate (n = 3).

[3] = test system: Bacillus subtilis (ATCC 6633); type: cell-based
Procedure: as §2

[4] = test system: Pseudomonas aeruginosa (ATCC 9027); type: cell-based
Procedure: as §2

[5] = test system: Enterococcus faecalis (DSM 2570); type: cell-based
Procedure: as §2

[6] = test system: Klebsiella pneumoniae (DSM 26371); type: cell-based
Procedure: as §2

[7] = test system: Helicobacter pylori (ATCC 43504); type: cell-based
Procedure: as §2

[8] = test system: Enterococcus faecium (DSM 20477); type: cell-based; conditions: DSM 20477
Procedure: as §2

[9] = test system: Escherichia coli (ATCC 8739); type: cell-based
Procedure: as §2

[10] = test system: Enterobacter cloacae (DSM 30054); type: cell-based
Procedure: as §2

[11] = test system: Acinetobacter baumannii (DSM 30007); type: cell-based
Procedure: as §2

Hemolysis assay = type: cell-based, human; conditions: human
Procedure: (§3) The ability of dendrimers and peptides to cause hemolysis was evaluated using human whole red blood cells. Briefly, fresh human erythrocytes (obtained from Divbio Science Europe, NL) were washed 3 times by centrifugation at 800× g for 5 min with sterile phosphate buffer saline (PBS, pH 7.4). The washed erythrocytes were resuspended in complete culture media (DMEM supplemented with 10% FBS) to a final concentration of 8%. Human erythrocytes were then added into sterile 96-well microplates (150 µL per well) and were exposed to increasing concentrations of peptides or dendrimers. After 1 h incubation at 37 °C, plates were centrifuged at 800× g for 5 min. Then, 100 µL of supernatant were carefully transferred to a new 96-well microplate and absorbance was measured at 450 nm using microplate reader. Triton-X100 at 0.1% (v/v) was used as positive control giving 100% hemolysis. The HC50 values of peptides and dendrimers (i.e., the concentration of compound causing 50% of hemolysis) were calculated using GraphPad® Prism 7 software.

human red blood cells = assay: Hemolysis assay; type: cell-based
Procedure: as §3

human cancer cells = type: cell-based; conditions: 48 h
Procedure: (§4) The antiproliferative effect of the peptides was determined by using human cells, as previously described. Human cancer cells used in this experiment were ovarian cancer cells A2780 (obtained from ECACC), breast cancer cells MCF-7 (obtained from ATCC), liver cancer cells HepG2 (obtained from ATCC), lung cancer cells A549 (obtained from ATCC), pancreatic cancer cells MiaPaCa (obtained from ATCC), prostate cancer cells PC-3 (obtained from ATCC), and skin cancer cells MNT-1 (generous gift from the National Institute of Health (NIH). Normal human cells used were human lung fibroblasts IMR-90 (obtained from ATCC). All cells were cultured in DMEM which was supplemented with 10% fetal bovine serum (FBS), 1% L-glutamine, and 1% antibiotics (all from Invitrogen) at 37 °C in 5% CO2 incubator. For cytotoxicity assay, cells were maintained in 25 cm^2 flasks. Cells were separated from flasks using trypsin-EDTA solution (from Thermofisher) and counted using Malassez chamber and diluted in culture medium before seeding into 96-well cell-culture plates (Greiner bio-one, Paris, France) at approximately 3000 cells/well. Cells were then treated with increasing concentration of peptides diluted in culture medium (1:2 serial dilution, from 100 µM to 0 µM). After 48 h, medium was aspirated and number of viable cells was colorimetrically determined using resazurin-based assay following manufacturer’s instructions. The fluorescence intensity was measured using microplate reader (Biotek, Santa Clara, CA, USA, Synergy Mx) with an excitation wavelength of 530 nm and an emission wavelength of 590 nm. The fluorescence values were normalized by the controls (untreated cells) and expressed as percent of proliferation. The IC50 values of peptides (i.e., the concentrations causing 50% inhibition of cell proliferation) were determined using GraphPad® Prism 7 software.

[12] = test system: human lung fibroblasts IMR-90; type: cell-based; conditions: 48 h
Procedure: as §4

[13] = test system: methicillin-resistant Staphylococcus aureus (MRSA); design: method as in PMID 35092568; conditions: cited from earlier work
lung cancer cells A549 = type: cell-based, human; conditions: 48 h
Procedure: as §4

liver cancer cells HepG2 = type: cell-based, human; conditions: 48 h
Procedure: as §4

skin cancer cells MNT-1 = type: cell-based, human; conditions: 48 h
Procedure: as §4

[14] = test system: prostate cancer cells PC-3; type: cell-based, human; conditions: 48 h
Procedure: as §4

[15] = test system: ovarian cancer cells A2780; type: cell-based, human; conditions: 48 h
Procedure: as §4

[16] = test system: breast cancer cells MCF-7; type: cell-based, human; conditions: 48 h
Procedure: as §4

[17] = test system: pancreatic cancer cells MiaPaCa; type: cell-based, human; conditions: 48 h
Procedure: as §4

[18] = Stability study at different pH; conditions: pH 2 to pH 14
Procedure: as §1, with “Dilute solutions of HCl and NaOH were added to adjust the pH of the solution from 2 to 12.” left out

[19] = cited from earlier work
H. pylori = test system: H. pylori; design: method as in PMID 31614561; conditions: cited from earlier work
[20] = Dynamic light scattering (zetasizer); type: physicochemical
Procedure: The dendrimeric solutions of peptides were transferred into transparent cuvette with care to remove bubble formation. The sample was then transferred to the cell holder and study was performed at 90° scattering angle at room temperature. The standard viscosity and refractive index were kept constant and kept at 1.0, 1.33 and 80.4 mPa, respectively.

CC[C@H](C)[C@H](NC(=O)CNC(=O)[C@H](CO)NC(=O)[C@H](CC(C)C)NC(=O)[C@@H](N)Cc1ccccc1)C(=O)N[C@H](C(=O)NCC(=O)N[C@@H](CCSC)C(=O)N[C@@H](CC(C)C)C(=O)N[C@H](C)C(=O)N[C@@H](CCCCN)C(=O)N[C@@H](CC(C)C)C(=O)N[C@@H](Cc1ccccc1)C(N)=O)C(C)C [[G10a]-SHa, H-Phe^1-Leu^2-Ser^3-Gly^4-Ile^5-Val^6-Gly^7-Met^8-Leu^9-D-Ala^10-Lys^11-Leu^12-Phe^13-NH2] (HELM PEPTIDE1{F.L.S.G.I.V.G.M.L.[dA].K.L.F.[am]}$$$$V2.0)
stability at different temperatures [1]: considerable stability up to 60 °C; also recorded: higher stability up to 60 °C | minimal inhibitory concentration (MIC) ([2]; ATCC 6538): 3.12 µM (≈ 4.35 µg/mL) | minimal inhibitory concentration (MIC) ([2]; S. aureus (ATCC 6538), 18–24 h, aerobic): 3.12 µM (≈ 4.35 µg/mL) | minimal inhibitory concentration (MIC) ([3]; ATCC 6633): 3.12 µM (≈ 4.35 µg/mL) | minimal inhibitory concentration (MIC) ([3]; B. subtilis (ATCC 6633), 18–24 h, aerobic): 3.12 µM (≈ 4.35 µg/mL) | minimal inhibitory concentration (MIC) ([4]; ATCC 9027): >100 µM | minimal inhibitory concentration (MIC) ([4]; P. aeruginosa (ATCC 9027), 18–24 h, aerobic): > 100 µM | minimal inhibitory concentration (MIC) ([5]; DSM 2570): 25 µM (≈ 34.9 µg/mL) | minimal inhibitory concentration (MIC) ([5]; E. faecalis (DSM 2570), 18–24 h, micro-aerobic): 25 µM (≈ 34.9 µg/mL) | minimal inhibitory concentration (MIC) ([6]; DSM 26371): 100 µM (≈ 139 µg/mL) | minimal inhibitory concentration (MIC) ([6]; K. pneumoniae (DSM 26371), 18–24 h): 100 µM (≈ 139 µg/mL) | minimal inhibitory concentration (MIC) ([7]; ATCC 43504): 3.12 µM (≈ 4.35 µg/mL) | minimal inhibitory concentration (MIC) ([7]; H. pylori (ATCC 43504), 18–24 h, micro-aerobic): 3.12 µM (≈ 4.35 µg/mL) | minimal inhibitory concentration (MIC) [8]: >100 µM | minimal inhibitory concentration (MIC) ([9]; ATCC 8739): 100 µM (≈ 139 µg/mL) | minimal inhibitory concentration (MIC) ([9]; E. coli (ATCC 8739), 18–24 h, aerobic): 100 µM (≈ 139 µg/mL) | minimal inhibitory concentration (MIC) ([10]; DSM 30054): >100 µM | minimal inhibitory concentration (MIC) ([10]; E. cloacae (DSM 30054), 18–24 h, aerobic): > 100 µM | minimal inhibitory concentration (MIC) ([11]; A. baumannii (DSM 30007), 18–24 h, aerobic): 12.5 µM (≈ 17.4 µg/mL) | minimal inhibitory concentration (MIC) ([11]; DSM 30007): 12.5 µM (≈ 17.4 µg/mL) | hemolysis at 100 µM (Hemolysis assay): 102 ± 6.18% | hemolytic activity (in words) (human red blood cells): high hemolytic activity | estimated HC50 (concentration causing 50% of hemolysis) (human red blood cells; red cells of human, 1 h): 43.66 ± 1.01 µM | IC50 (human cancer cells): 18.1 ± 6.68 µM | IC50 [12]: 37.2 ± 2.88 µM | antibacterial activity (in words) [13]: active | IC50 (lung cancer cells A549): 14.5 ± 1.44 µM | IC50 (liver cancer cells HepG2): 31.6 ± 1.56 µM | IC50 (skin cancer cells MNT-1): 15.2 ± 0.8 µM | IC50 [14]: 13 ± 1.99 µM | IC50 [15]: 14.8 ± 7.35 µM | IC50 [16]: 15.1 ± 8.51 µM | IC50 [17]: 22.4 ± 6.07 µM | stability at different pH [18]: significantly stable at pH values up to 10 and unstable at high pH values of 12 and 14 | serum stability (in words) [19]: good serum stability | antibacterial activity (in words) (H. pylori): active | Pdi Values (polydispersity index) ([20]; DLS): 0.628 | Z-Average ([20]; DLS, room temperature): 63.25 nm·days | Zeta Potential ([20]; zetasizer): −34.1 mV
